{
  "source": "patent US20240108740A1",
  "about": "“THERAPEUTIC COMPOSITIONS INCLUDING SPN10 AND USES THEREOF” (Stealth BioTherapeutics Inc., priority 2022, published 2024)",
  "key": {"[1]": {"experiment": "Example 16: H2O2 scavenging, luminol-induced chemiluminescence", "type": "biochemical", "conditions": "H2O2 4.4 nmol", "protocol": "The effect of peptide conjugates, aromatic-cationic peptides, or SPN10(s) (with or without aromatic-cationic peptides) on H2O2 will be measured by luminol-induced chemiluminescence. Luminol (25 μM) and horseradish peroxidase (0.7 IU) will be added to a solution of H2O2 (4.4 nmol) followed by peptide conjugates; aromatic-cationic peptides; or SPN10(s) alone or in combination with aromatic-cationic peptides. Chemiluminescence will be monitored with a Chronolog Model 560 aggregometer (Havertown, PA) for 20 minutes at 37° C."}, "[2]": {"test_system": "Sprague Dawley rats", "experiment": "Example 37: acute renal injury caused by ischemia-reperfusion", "type": "in vivo, rat", "protocol": "[…] Sprague Dawley rats (250-300 g) will be assigned to one of the following groups: (1) sham surgery (no I/R); (2) I/R+saline vehicle; (3) I/R+peptide conjugates; (4) I/R+aromatic-cationic peptides; (5) I/R+SPN10(s); (6) I/R+SPN10(s) and aromatic-cationic peptides. Peptide conjugates (3 mg/kg in saline); aromatic-cationic peptides (an equivalent molar dose of aromatic-cationic peptide based on the concentration of the aromatic-cationic peptide administered in the peptide conjugate treatment group); SPN10(s) (an equivalent molar dose of SPN10 based on the concentration of SPN10 administered in the peptide conjugate treatment group) or SPN10(s) in combination with aromatic-cationic peptides (e.g., an equivalent molar dose of SPN10 based on the concentration of SPN10 administered in the peptide conjugate treatment group and an equivalent molar dose of aromatic-cationic peptide based on the concentration of aromatic-cationic peptide administered in the peptide conjugate treatment group) will be administered 30 minutes before ischemia and immediately before reperfusion. Control animals will be given saline alone according to the same schedule.\nRats will be anesthetized with a mixture of ketamine (90 mg/kg, i.p.) and xylazine (4 mg/kg, i.p.). […] Renal function will be determined by measuring levels of blood urea nitrogen (BUN) and serum creatinine (BioAssay Systems DIUR-500 and DICT-500).\nRenal Morphologic Examination: Kidneys will be fixed in 10% neutral-buffered formalin and embedded in paraffin wax for sectioning. Three-micron sections will be stained with hematoxylin-eosin (H&E) and periodic acid-Schiff (PAS), and analyzed by light microscopy. Lesions will be scored based on 1) mitosis and necrosis of individual cells, 2) necrosis of all cells in adjacent proximal convoluted tubules with survival of surrounding tubules, 3) necrosis confined to the distal third of the proximal convoluted tubule with a band of necrosis extending across the inner cortex, and 4) necrosis affecting all three segments of the proximal convoluted tubule. […]"}},
  "note": "Residues, ends and D or L forms follow the SMILES beside them.",
  "data": [
    {"smiles": "N=C(N)NCCC[C@H](NC(=O)[C@@H](N)Cc1c[nH]c2ccccc12)C(=O)N[C@@H](Cc1c[nH]c2ccccc12)C(=O)N[C@@H](CCCCN)C(N)=O", "note": "[SPN10, H-L-Trp-L-Arg-L-Trp-L-Lys-NH2] (H-WRWK-NH2)", "values": [
      {"measurement": "luminol response (H2O2 scavenging)", "setting": "[1]", "result": "dose-dependently inhibit the luminol response"},
      {"measurement": "BUN and serum creatinine values", "setting": "[2]; 30 minutes before ischemia and immediately before reperfusion, 24 hours of reperfusion", "result": "improve BUN and serum creatinine values"},
      {"measurement": "tubular cell apoptosis after ischemia and reperfusion", "setting": "[2]; rat, in vivo", "result": "prevent tubular cell apoptosis"},
      {"measurement": "tubular cell injury after ischemia and reperfusion", "setting": "[2]; rat, in vivo", "result": "prevent tubular cell injury"}
    ]}
  ]
}
